In PMC3369547, “Antimicrobial Constituents of Artemisia afra Jacq. ex Willd. against Periodontal Pathogens” (Evidence-based Complementary and Alternative Medicine : eCAM, 2012):
Values after ≈ are worked out from the molar mass of the structure shown. Like-named read-outs stand apart in the source and are kept apart here. *1 amine or outer side, *2 acyl side, *3 side chain or, on linkers, in order; H or OH if unused. Where a SMILES comes first, the peptide text is derived from it. Bridges are numbered along the chain shown (N, C = ends). Roman numbers before positions name the chains, in order. [ ]: non-standard residue; d: D form. Actinocin(9to1) = Cc1c2oc3c(C)ccc(C(=O)[*:1])c3nc-2c(C(=O)[*:2])c(N)c1=O; NMeV = CN[C@H](C(=O)O)C(C)C; Sar = CNCC(=O)O

Legend:
Candida albicans (Med I) = assay: Microdilution MIC/MMC (INT) against Candida albicans; assay type: cell-based; conditions: C.a, Yeast, table title says mg/mL; for MBC: MMC in title
Description: (§1) The microorganisms used in this study include Actinomyces naeslundii (ATCC 19039), Actinomyces israelii (ATCC 10049), Aggregatibacter actinomycetemcomitans (ATCC 33384), Candida albicans (Med I), Porphyromonas gingivalis (ATCC 33277), Prevotella intermedia (ATCC 25611), and Streptococcus mutans (ATCC 25175). Bacteria were grown in the Casein-peptone Soy Agar medium (CASO) (Merck SA (Pty) Ltd.) under anaerobic conditions in a jar with anaerocult A (Merck SA (Pty) Ltd.), at 37°C for 48 hours. Sabouraud Dextrose Agar medium (SDA) (Merck SA (Pty) Ltd.) was used for the culturing of Candida albicans and incubated at 37°C for 24 hours under aerobic conditions. Subculturing was done once weekly.
(§2) The microdilution technique using 96-well microplates was used to obtain the MIC and MMC values of the crude extract against microorganisms under study. The extract was serially diluted in the 96-well plate with 48 hours old microorganisms (5 × 10^6 CFU/mL) grown at 37°C and the final concentration of extract and positive control (CHX) ranged from 25.0 mg/mL to 0.8 mg/mL. Microbial growth was indicated by adding 40 μL of (0.2 mg/mL) p-iodonitrotetrazolium violet (INT) (Sigma-Aldrich, South Africa) to microplate wells and incubated at 37°C for 48 hours. MIC was defined as the lowest concentration that inhibited the colour change of INT. […] These suspensions were reincubated at 37°C for 48 hours. The MMC was determined as the lowest concentration of extract which inhibited 100% growth of microorganisms.

[1] = test system: Actinomyces israelii (ATCC 10049); assay: Microdilution MIC/MMC (INT) against Actinomyces israelii; assay type: cell-based; conditions: Actinomyces israelii, ATCC10049, A.i, Gram +ve, table title says mg/mL; for MBC: MMC in title
Description: as §1, §2

[2] = test system: Prevotella intermedia (ATCC 25611); assay: Microdilution MIC/MMC (INT) against Prevotella intermedia; assay type: cell-based; conditions: Prevotella intermedia, ATCC25611, P.i, Gram –ve, table title says mg/mL; for MBC: MMC in title
Description: as §1, §2

[3] = test system: Actinomyces naeslundii (ATCC 19039); assay: Microdilution MIC/MMC (INT) against Actinomyces naeslundii; assay type: cell-based; conditions: Actinomyces naeslundii, ATCC19039, A.n, Gram +ve, table title says mg/mL; for MBC: MMC in title
Description: as §1, §2

[4] = test system: Porphyromonas gingivalis (ATCC 33277); assay: Microdilution MIC/MMC (INT) against Porphyromonas gingivalis; assay type: cell-based; conditions: Porphyromonas gingivalis, ATCC33277, P.g, Gram –ve, table title says mg/mL; for MBC: MMC in title
Description: as §1, §2

[5] = test system: Aggregatibacter actinomycetemcomitans (ATCC 33384); assay: Microdilution MIC/MMC (INT) against Aggregatibacter actinomycetemcomitans; assay type: cell-based; conditions: Aggregatibacter actinomycetemcomitans, ATCC33384, A.a, Gram –ve, table title says mg/mL; for MBC: MMC in title
Description: as §1, §2

lung cancer (A549) cell = test system: lung cancer (A549) cell; design: method as in PMID 15246561; conditions: A549 cells; read-out: IC50 cell proliferation; cited from earlier work
oral microorganisms = assay: Microdilution MIC/MMC, summary over tested microbial species; assay type: cell-based; conditions: against A. israelii and A. naeslundii; read-out: lowest MIC and MMC value
Description: as §1, §2

[6] = XTT cell proliferation (cytotoxicity) assay on McCoy cells; assay type: cell-based; conditions: mouse
Description: Extract and compounds were dissolved in dimethyl sulfoxide (DMSO) and stored at −20°C. All tested compounds were diluted to the final concentration with RPMI 1640 and control cultures were diluted with 0.1% DMSO.
McCoy cells were maintained in monolayer culture at 37°C and 5% CO2 with 10% […] Medium, 10 μg/mL of penicillin, 10 μg/mL, streptomycin, 40 μg/mL gentamycin, and 0.25 μg/mL fungizone.
A microtiter plate with McCoy cells was used for testing all the ethanol extracts for cytotoxicity following the method of [26]. Cytotoxicity was measured by the XTT (sodium 3′-[1-(phenyl amino-carbonyl)-3,4-tetrazolium]-bis-[4-methoxy-6-nitro] benzene sulfonic acid hydrate) method using a cell proliferation kit II (Roche Diagnostics GmbH). Hundred microlitres of McCoy cells (1 × 10^5 mL) was seeded onto a microtiter plate and incubated for 24 h to allow the cells to attach to the bottom of the plate. Dilution series were made of the extract and compound and the various concentrations (400 to 3.1 μg/mL) were added to the microtitre plate and incubated for 48 h. The XTT reagents were added to a final concentration of 0.3 mg/mL and the cells were incubated for 1-2 hours. The positive drug control (Zearalenone) at concentrations range of (10 μg/mL to 0.6 μg/mL) was included in the assay. After incubation the absorbance of the colour was spectrophotometrically quantified using an ELISA plate reader, which measured the optical density at 490 nm with a reference wavelength of 690 nm. The assay was carried out in triplicate.

[7] = DPPH free radical scavenging assay; assay type: biochemical; conditions: 37°C, 30 min, 517 nm
Description: The free radical scavenging activity was measured using 1, 1 diphenyl-2-picryl-hydraxyl (DPPH) assay with slight modifications. The ethanol extract of A. afra and Vitamin C (positive control) 1000 μg/mL (20 μL) was added in the first three wells of a 96-well plate containing 200 μL of distilled water to make up final concentration of 100 μg/mL and the remaining wells were filled with 110 μL of distilled water. The first raws containing the extract/compounds were serially diluted to wells which contain 110 μL of distilled water, and later, 90 μL of methanolic solution of DPPH ([…]) was added to all the wells. The final concentrations of the extract/compounds ranged from 100 to 0.8 μg/mL. The plates were incubated at 37°C for 30 min and the absorbance was measured at 517 nm using the ELISA plate reader. The percent radical scavenging activity by A. afra was determined by comparison with ethanol (blank). The inhibition ratio was calculated as follows: % DPPH radical-scavenging = (AC-AS)/AC × 100, where AC is absorbance of the control solution (containing only DPPH solution), and AS is the absorbance of the sample in DPPH solution. The percentage of DPPH radical-scavenging was plotted against the plant extract/compounds concentrations (μg/mL) to determine the concentration of extract/compound required to scavenge DPPH by 50% (EC50).

Compound	MIC (Candida albicans (Med I)) [µg/mL]	MIC [1] [µg/mL]	MIC [2] [µg/mL]	MIC [3] [µg/mL]	MIC ([4]; read-out: MIC) [µg/mL]	MIC [5] [µg/mL]	DPPH scavenging IC50 [7] [µg/mL]	MBC (Candida albicans (Med I)) [µg/mL]	MBC [1] [µg/mL]	MBC [3] [µg/mL]	MBC [4] [µg/mL]	MBC [5] [µg/mL]	MBC [2] [µg/mL]	other results
COc1ccc(-c2cc(=O)c3c(O)cc(O)cc3o2)cc1 [compound 1, acacetin]	> 1000	250 (≈ 879 µM)	1000 (≈ 3520 µM)	1000 (≈ 3520 µM)		> 1000	2.39	> 1000	500 (≈ 1760 µM)	1000 (≈ 3520 µM)	> 1000	> 1000	> 1000	IC50 (lung cancer (A549) cell): 9.46 µM; MIC (oral microorganisms): 250 µg/mL (≈ 879 µM); IC50 at 48 h [6]: 35.4 µg/mL (≈ 125 µM); MIC [4]: 1000 µg/mL (≈ 3520 µM)
Cc1c2oc3c(C)ccc(C(=O)N[C@@H]4C(=O)N[C@H](C(C)C)C(=O)N5CCC[C@H]5C(=O)N(C)CC(=O)N(C)[C@@H](C(C)C)C(=O)O[C@@H]4C)c3nc-2c(C(=O)N[C@@H]2C(=O)N[C@H](C(C)C)C(=O)N3CCC[C@H]3C(=O)N(C)CC(=O)N(C)[C@@H](C(C)C)C(=O)O[C@@H]2C)c(N)c1=O [Actinomycin-D, reference compound] (I: T[dV]P[Sar][NMeV] / II: T[dV]P[Sar][NMeV]; ester I:1-I:C, II:1-II:C; linker I:N-II:N via Actinocin(9to1))														IC50 at 48 h ([6]; McCoy cells, XTT, 48 h, read-out: IC50 (cytotoxicity)): 0.00336 µg/mL (≈ 0.00268 µM)

More lines, main results first:

MIC (Candida albicans (Med I)) [µg/mL]	MIC [1] [µg/mL]	MIC [2] [µg/mL]	MIC [3] [µg/mL]	MIC ([4]; read-out: MIC) [µg/mL]	MIC [5] [µg/mL]	DPPH scavenging IC50 [7] [µg/mL]	Compound	MBC (Candida albicans (Med I)) [µg/mL]	MBC [1] [µg/mL]	MBC [3] [µg/mL]	MBC [4] [µg/mL]	MBC [5] [µg/mL]	MBC [2] [µg/mL]	other results
> 1000	500 (≈ 1560 µM)	1000 (≈ 3120 µM)	500 (≈ 1560 µM)	> 1	> 1000		C=C1C(=O)OC2C1C(OC(C)=O)CC(=C)C1(O)C=CC(C)(O)C21 (stereo not drawn) [compound 2, 12α,4α-dihydroxybishopsolicepolide]	> 1000	500 (≈ 1560 µM)	1000 (≈ 3120 µM)	> 1000	> 1000		MBC ([2]; read-out: MBC): 1 µg/mL (≈ 3.12 µM)
> 1000			1000 (≈ 2340 µM)	> 1	> 1000		C[C@H]1[C@H](C)CC[C@]2(C)CC[C@]3(C)C(=CC[C@@H]4[C@@]5(C)CC[C@H](O)C(C)(C)[C@@H]5CC[C@]43C)[C@H]12 [compound 4, α-amyrin]	> 1000			> 1000	> 1000	> 1000	MBC ([1]; read-out: MBC): > 1 µg/mL; MIC ([1]; read-out: MIC): > 1 µg/mL; MIC ([2]; read-out: MIC): > 1 µg/mL; MBC ([3]; read-out: MBC): > 1 µg/mL
						1.22	O=C1O[C@H]([C@@H](O)CO)C(O)=C1O [vitamin C, reference compound]							
